Assay results taken from patent publication US10183021B2, “sGC stimulators” (Ironwood Pharmaceuticals, Inc., priority 2013, dated 2019).
Read-outs that look alike come from different tables or passages of the source.

Biological target: soluble guanylate cyclase (sGC) (Homo sapiens (Human), UniProt Q02108+Q02153)
Assay: sGC-HEK-cGMP assay, new protocol with DETA-NONOate, LC/MS detection (Example 2C)
Format: cell-based
Conditions: read-out: Absolute EC50 (uM) - binned
Procedure: Human embryonic kidney cells (HEK293), endogenously expressing soluble guanylate cyclase (sGC), were used to evaluate the activity of test compounds. Compounds stimulating the sGC enzyme should cause an increase in the intracellular concentration of cGMP. HEK 293 cells were seeded in Dulbecco's Modification of Eagle's Medium supplemented with fetal bovine serum (10% final) and penicillin (100 U/mL)/streptomycin (100 μg/mL) in a 50 μL volume at a density of 1.5×10^4 cells/well in a poly-D-lysine coated 384 well flat bottom plate. Cells were incubated overnight at 37° C. in a humidified chamber with 5% CO2. Medium was aspirated and cells were washed with 1× Hank's Buffered Saline Salt Solution (50 μL). Cells were then incubated for 15 minutes at 37° C. with 50 μL of a 0.5 mM 3-isobutyl-1-methylxanthine (IBMX) solution. Test article and Diethylenetriamine NONOate (DETA-NONOate) solutions (x μM concentration for test article solution and 10 μM concentration for DETA-NONOate solution; wherein x is one of the following concentrations);
were then added to the assay mixture and the resulting mixture incubated at 37° C. for 20 minutes. After the 20 minute incubation, the assay mixture was aspirated and 10% acetic acid containing 150 ng/mL+3-cGMP (internal standard for LCMS) (50 μL) was added to the cells. The plate was incubated at 4° C. for 30 minutes in the acetic acid solution to stop the reaction and lyse the cells. The plates were then centrifuged at 1,000 g for 3 minutes at 4° C. and the supernatant transferred to a clean reaction plate for LCMS analysis.
cGMP concentrations were determined from each sample using the LCMS conditions below (Table 5) and calculated standard curve.
Data were normalized to a high control using the following equation: 100*(Sample−Low Control)/(High Control−Low Control), where the low control is the average of 16 samples treated with 1% DMSO, and the high control is the average of 16 samples treated with 30 μM of 1-329 Data were fit using a 4-parameter fit (log(agonist) vs. response—variable slope) using GraphPad Prism Software v.5. n=2 for all compounds. […] Compounds failing to elicit a minimum response of 50% are reported as >30 μM.

soluble guanylate cyclase (sGC), sequence (Q02153 whole entry): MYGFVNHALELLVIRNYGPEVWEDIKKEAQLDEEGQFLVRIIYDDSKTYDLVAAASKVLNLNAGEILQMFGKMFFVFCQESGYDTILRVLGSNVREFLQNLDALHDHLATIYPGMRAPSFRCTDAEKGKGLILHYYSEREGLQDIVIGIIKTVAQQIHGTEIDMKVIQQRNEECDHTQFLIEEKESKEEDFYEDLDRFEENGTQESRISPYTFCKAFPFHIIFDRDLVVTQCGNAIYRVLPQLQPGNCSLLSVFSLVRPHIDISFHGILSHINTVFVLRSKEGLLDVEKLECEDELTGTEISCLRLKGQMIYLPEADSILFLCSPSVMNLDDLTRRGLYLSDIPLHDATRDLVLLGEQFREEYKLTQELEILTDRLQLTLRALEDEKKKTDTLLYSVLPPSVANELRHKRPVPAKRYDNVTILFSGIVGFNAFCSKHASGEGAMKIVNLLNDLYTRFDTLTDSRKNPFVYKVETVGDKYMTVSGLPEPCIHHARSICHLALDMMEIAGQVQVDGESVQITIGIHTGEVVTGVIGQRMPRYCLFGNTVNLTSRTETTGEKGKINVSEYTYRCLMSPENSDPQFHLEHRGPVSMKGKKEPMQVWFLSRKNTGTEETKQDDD
soluble guanylate cyclase (sGC), sequence (Q02108 whole entry): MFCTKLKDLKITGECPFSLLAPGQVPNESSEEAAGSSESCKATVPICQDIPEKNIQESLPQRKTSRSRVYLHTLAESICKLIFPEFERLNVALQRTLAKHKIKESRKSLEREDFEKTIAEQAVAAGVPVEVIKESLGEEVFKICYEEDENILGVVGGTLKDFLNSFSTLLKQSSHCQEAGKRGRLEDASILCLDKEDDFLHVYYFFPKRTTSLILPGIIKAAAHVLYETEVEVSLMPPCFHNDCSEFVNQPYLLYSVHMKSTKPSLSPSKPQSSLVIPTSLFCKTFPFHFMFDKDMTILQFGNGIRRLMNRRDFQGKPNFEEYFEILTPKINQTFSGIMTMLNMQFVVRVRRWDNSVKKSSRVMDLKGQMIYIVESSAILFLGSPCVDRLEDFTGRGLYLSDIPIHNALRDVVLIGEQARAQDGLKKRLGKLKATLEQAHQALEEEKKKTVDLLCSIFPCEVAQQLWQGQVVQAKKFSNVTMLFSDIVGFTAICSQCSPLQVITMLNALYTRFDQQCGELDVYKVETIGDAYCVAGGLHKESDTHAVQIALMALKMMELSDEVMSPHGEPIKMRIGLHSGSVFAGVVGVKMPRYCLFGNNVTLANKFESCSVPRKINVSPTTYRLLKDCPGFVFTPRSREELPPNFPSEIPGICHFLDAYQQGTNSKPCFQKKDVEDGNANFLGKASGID

SMILES | EC50 | EC50 (HEK293 cells, 10 μM DETA-NONOate, LC/MS detection, concentration eliciting 50% of high control response (30 μM I-329))
Cc1cc(-c2ncc(F)c(=O)[nH]2)nn1Cc1ccccc1F [Compound I-410] | > 1 µM | 
Cc1cc(-c2ncc(F)c(N(C)CC3(C(=O)O)CC3)n2)nn1Cc1ccccc1F [Compound I-411] | 0.101 to 1 µM | 
Cc1cc(-c2ncc(F)c(N3CCC[C@H](C)[C@@H]3C(=O)O)n2)nn1Cc1ccccc1F [Compound I-412] | > 1 µM | 
Cc1cc(-c2ncc(F)c(NC(CO)CO)n2)nn1Cc1ccccc1F [Compound I-413] | > 1 µM | 
Cc1cc(-c2ncc(F)c(NCC(O)(C(F)(F)F)C(F)(F)F)n2)nn1Cc1ccccc1F [Compound I-414] | > 1 µM | 
O=C(Nc1nc(-c2cc(-c3ccon3)n(Cc3ccccc3F)n2)ncc1F)C1(C(F)(F)F)CC1 [Compound I-415] | > 1 µM | 
OCC(CO)Nc1cnnc(-c2cc(-c3ccon3)n(Cc3ccccc3F)n2)n1 [Compound I-416] | > 1 µM | 
NC(=O)CNc1nc(-c2cc(-c3ccon3)n(Cc3ccccc3F)n2)ncc1F [Compound I-417] | 0.101 to 1 µM | 
O=C(O)CC(Nc1nc(-c2cc(-c3ccon3)n(Cc3ccccc3F)n2)ncc1F)C(F)(F)F (stereo not drawn) [Compound I-418] | 0.101 to 1 µM | 
NC(=O)CC(Nc1nc(-c2cc(-c3ccon3)n(Cc3ccccc3F)n2)ncc1F)C(F)(F)F (stereo not drawn) [Compound I-419] | > 1 µM | 
CCOC(=O)C1(C)C(=O)Nc2nc(-c3cc(-c4ccon4)n(Cc4ccccc4F)n3)nc(N)c21 (stereo not drawn) [Compound I-420] | < 0.1 µM | 
CC1(C(N)=O)C(=O)Nc2nc(-c3cc(-c4ccon4)n(Cc4ccccc4F)n3)nc(N)c21 (stereo not drawn) [Compound I-421] | 0.101 to 1 µM | 
CC1(C(=O)NC2CC2)C(=O)Nc2nc(-c3cc(-c4ccon4)n(Cc4ccccc4F)n3)nc(N)c21 (stereo not drawn) [Compound I-422] | 0.101 to 1 µM | 
O=S(=O)(C1CCN(c2nc(-c3cc(-c4ccon4)n(Cc4ccccc4F)n3)ncc2F)CC1)N1CCOCC1 [Compound I-423] | < 0.1 µM | 
O=C(O)[C@@H]1CN(c2nc(-c3cc(-c4ccon4)n(Cc4ccccc4F)n3)ncc2F)C[C@H]1C(F)(F)F [Compound I-424] | < 0.1 µM | 
O=C(NS(=O)(=O)C1CCN(c2nc(-c3cc(-c4ccon4)n(Cc4ccccc4F)n3)ncc2F)CC1)C1CC1 [Compound I-425] | < 0.1 µM | 
CC(=O)NS(=O)(=O)C1CCN(c2nc(-c3cc(-c4ccon4)n(Cc4ccccc4F)n3)ncc2F)CC1 [Compound I-426] | < 0.1 µM | 
NS(=O)(=O)C1CCN(c2nc(-c3cc(-c4ccon4)n(Cc4ccccc4F)n3)ncc2F)C1 (stereo not drawn) [Compound I-427] | < 0.1 µM | 
OCCN(CCO)c1nc(-c2cc(-c3ccon3)n(Cc3ccccc3F)n2)ncc1F [Compound I-428] | < 0.1 µM | 
O=C(NS(=O)(=O)C1CCN(c2nc(-c3cc(-c4ccon4)n(Cc4ccccc4F)n3)ncc2F)C1)C1CC1 (stereo not drawn) [Compound I-429] | < 0.1 µM | 
OC[C@@H]1[C@H](O)CCN1c1nc(-c2cc(-c3ccon3)n(Cc3ccccc3F)n2)ncc1F [Compound I-430] | < 0.1 µM | 

SMILES | EC50 | EC50 (HEK293 cells, 10 μM DETA-NONOate, LC/MS detection, concentration eliciting 50% of high control response (30 μM I-329))
CC(O)CN(CC(C)O)c1nc(-c2cc(-c3ccon3)n(Cc3ccccc3F)n2)ncc1F (stereo not drawn) [Compound I-431] | < 0.1 µM | 
O=S(=O)(CCNc1nc(-c2cc(-c3ccon3)n(Cc3ccccc3F)n2)ncc1F)NO [Compound I-432] | < 0.1 µM | 
O=C1C=C(O)CN(c2nc(-c3cc(-c4ccon4)n(Cc4ccccc4F)n3)ncc2F)C1 [Compound I-433] | > 1 µM | 
OCC1(O)CCN(c2nc(-c3cc(-c4ccon4)n(Cc4ccccc4F)n3)ncc2F)CC1 [Compound I-434] | < 0.1 µM | 
OC[C@@H]1C[C@@H](O)CN1c1nc(-c2cc(-c3ccon3)n(Cc3ccccc3F)n2)ncc1F [Compound I-435] | < 0.1 µM | 
O=S(=O)(CCNc1nc(-c2cc(-c3ccon3)n(Cc3ccccc3F)n2)ncc1F)NC[C@H](O)CO [Compound I-437] | 0.101 to 1 µM | 
NC(=O)C1(O)CCN(c2nc(-c3cc(-c4ccon4)n(Cc4ccccc4F)n3)ncc2F)CC1 [Compound I-438] | < 0.1 µM | 
O=S(=O)(CCNc1nc(-c2cc(-c3ccon3)n(Cc3ccccc3F)n2)ncc1F)NCCO [Compound I-439] | < 0.1 µM | 
O=C(NC1CN(c2nc(-c3cc(-c4ccon4)n(Cc4ccccc4F)n3)ncc2F)C1)C1(O)CC1 [Compound I-440] | 0.101 to 1 µM | 
O=c1[nH]nc(CNc2nc(-c3cc(-c4ccon4)n(Cc4ccccc4F)n3)ncc2F)[nH]1 [Compound I-441] | 0.101 to 1 µM | 
O=c1nc[nH]n1-c1nc(-c2cc(-c3ccon3)n(Cc3ccccc3F)n2)ncc1F [Compound I-442] | > 1 µM | 
NC(=O)C(O)CNc1nc(-c2cc(-c3ccon3)n(Cc3ccccc3F)n2)ncc1F (stereo not drawn) [Compound I-443] | 0.101 to 1 µM | 
O=S(=O)(CC(F)(F)F)Nc1ccnc(-c2cc(-c3ccon3)n(Cc3ccccc3F)n2)n1 [Compound I-444] | 0.101 to 1 µM | 0.101 to 1 µM
O=S(=O)(CCC(F)(F)F)Nc1nc(-c2cc(-c3ccon3)n(Cc3ccccc3F)n2)ncc1F [Compound I-445] | 0.101 to 1 µM | 
COCCS(=O)(=O)Nc1nc(-c2cc(-c3ccon3)n(Cc3ccccc3F)n2)ncc1F [Compound I-446] | > 1 µM | 
O=C(O)c1ccc(CNc2nc(-c3cc(-c4ccon4)n(Cc4ccccc4F)n3)ncc2F)s1 [Compound I-448] | 0.101 to 1 µM | 
O=C(O)CCCCNc1nc(-c2cc(-c3ccon3)n(Cc3ccccc3F)n2)ncc1F [Compound I-449] | < 0.1 µM | 
CC(=O)c1cc(-c2ncc(F)c(O)n2)nn1Cc1ccccc1F [Compound I-450] | > 1 µM | 
CC(=O)c1cc(-c2ncc(F)c(N(C)CC3(C(=O)O)CC3)n2)nn1Cc1ccccc1F [Compound I-451] | 0.101 to 1 µM | 
NS(=O)(=O)Nc1ccnc(-c2cc(-c3ccon3)n(Cc3ccccc3F)n2)n1 [Compound I-456] | 0.101 to 1 µM | 
C[C@H]1CCCN(c2nc(-c3cc(C#N)n(Cc4ccccc4F)n3)ncc2F)[C@H]1C(=O)O [Compound I-457] | 0.101 to 1 µM | 

SMILES | EC50 | EC50 (HEK293 cells, 10 μM DETA-NONOate, LC/MS detection, concentration eliciting 50% of high control response (30 μM I-329))
O=C1C=C(O)CC(C(=O)Nc2ccnc(-c3cc(-c4ccon4)n(Cc4ccccc4F)n3)n2)C1 (stereo not drawn) [Compound I-458] | > 1 µM | 
O=C1CCC(C(=O)Nc2ccnc(-c3cc(-c4ccon4)n(Cc4ccccc4F)n3)n2)N1 (stereo not drawn) [Compound I-459] | > 1 µM | 
N#CC1(C(=O)Nc2nc(-c3cc(-c4ccon4)n(Cc4ccccc4F)n3)ncc2F)CC1 [Compound I-460] | > 1 µM | 
O=C(Nc1ccnc(-c2cc(-c3ccon3)n(Cc3ccccc3F)n2)n1)C1(OCc2ccccc2)CC1 [Compound I-461] | > 1 µM | 
CC(=O)c1cc(-c2ncc(F)c(NC(CO)CO)n2)nn1Cc1ccccc1F [Compound I-462] | > 1 µM | 
CC(=O)c1cc(-c2ncc(F)c(N3CCC[C@H](C)[C@@H]3C(=O)O)n2)nn1Cc1ccccc1F [Compound I-463] | 0.101 to 1 µM | 
O=C1CC(C(=O)Nc2ccnc(-c3cc(-c4ccon4)n(Cc4ccccc4F)n3)n2)CN1 (stereo not drawn) [Compound I-464] | 0.101 to 1 µM | 
O=C(Nc1nc(-c2cc(-c3ccon3)n(Cc3ccccc3F)n2)ncc1F)C(F)(F)F [Compound I-465] | 0.101 to 1 µM | 
Fc1ccccc1Cn1nc(-c2ncc(F)c(NCC(F)(F)F)n2)cc1-c1ccon1 [Compound I-466] | < 0.1 µM | 
O=C(O)C(O)(CNc1nc(-c2cc(-c3ccon3)n(Cc3ccccc3F)n2)ncc1F)C(F)(F)F (stereo not drawn) [Compound I-467] | > 1 µM | 
O=C(Nc1nc(-c2cc(-c3ccon3)n(Cc3ccccc3F)n2)ncc1N1CCOCC1)C(O)(C(F)(F)F)C(F)(F)F [Compound I-468] | 0.101 to 1 µM | 
O=C(Cc1nccs1)Nc1ccnc(-c2cc(-c3ccon3)n(Cc3ccccc3F)n2)n1 [Compound I-469] | 0.101 to 1 µM | 
O=C(N1CC(Nc2nc(-c3cc(-c4ccon4)n(Cc4ccccc4F)n3)ncc2F)C1)C1(O)CC1 [Compound I-470] | < 0.1 µM | 
O=C(CC(F)(F)F)Nc1ccnc(-c2cc(-c3ccon3)n(Cc3ccccc3F)n2)n1 [Compound I-471] | 0.101 to 1 µM | 
CS(=O)(=O)CS(=O)(=O)Nc1ccnc(-c2cc(-c3ccon3)n(Cc3ccccc3F)n2)n1 [Compound I-472] | > 1 µM | 
N#Cc1cc(-c2ncc(F)c(NCC(O)(C(F)(F)F)C(F)(F)F)n2)nn1Cc1ccccc1F [Compound I-474] | > 1 µM | 
CC(=O)O[C@@H](C(=O)Nc1ccnc(-c2cc(-c3ccon3)n(Cc3ccccc3F)n2)n1)C(F)(F)F [Compound I-475] | 0.101 to 1 µM | 
O=C(O)c1cc(-c2ncc(F)c(NCC(O)(C(F)(F)F)C(F)(F)F)n2)nn1Cc1ccccc1F [Compound I-476] | > 1 µM | 
O=C(Nc1nc(-c2cc(-c3ccon3)n(Cc3ccccc3F)n2)ncc1F)N1CCOCC1 [Compound I-477] | > 1 µM | 
O=C(Nc1ccnc(-c2cc(-c3ccon3)n(Cc3ccccc3F)n2)n1)C1(O)CC1 [Compound I-478] | < 0.1 µM | 
